Experimental findings from US20260356839A1, “DIRECT SYNTHESIS OF N-(3-SUBSTITUTED-CHROMAN-4-YL)-7H- PYRROLO[2,3-D]PYRIMIDIN-4-AMINES AND DERIVATIVES THEREOF” (MITOKININ, INC., priority 2022, published 2026) are described below.

Molecules are shown by their SMILES.

Assay type in all cases: cell-based
Data set [1] in a line: Cytotoxicity in the mt-Keima assay cells (FACS, DAPI). Conditions: human, hela mkyp cells. How it is done:
(§1) HeLa cells expressing mt-Keima and YFP-Parkin (HeLa MKYP) were plated at 10,000 cells/well in 96 well plates along with Mitokinin compounds at various concentrations. Following 16 hrs of incubation, cells were treated with 1 μM FCCP/oligomycin for 6 hours, then analyzed via FACS for the presence of mitochondria in lysosomes (as determined by an emissions spectrum shift from the pH-sensitive mt-Keima tag). Additionally, cells treated with 25 μM Mitokinin compound but not treated with FCCP/oligomycin were analyzed for cytotoxicity.

A short description of data set [2]: In Vitro Mitotoxicity (glucose/galactose) Assay. Conditions: human, skov3 cells. How it is done:
Briefly, SKOV3 cells (ATCC HTB-77) were plated in DMEM (Corning 10-013-CV) medium containing 25 mM glucose or DMEM with no glucose (Gibco 11966-025) supplemented with 10 mM galactose at 9,000 cells/well in 96 well plates (Corning costar 3610). 24 hrs later, compounds, in DMSO, were added at various concentrations to a final 0.1% DMSO for all wells. Following 20 hours of incubation with compound, all wells had their growth medium replaced with DMEM containing 25 mM of glucose followed by the addition of Promega CellTiter-Glo® reagent as per manufacturer's instructions. After a 15 minute incubation cellular ATP levels were read out using a Promega GloMax® DiscoverMicroplate Reader.
The ratio of relative CellTiter-Glo values from cells grown in galactose to cells grown in glucose was determined (gal/glc ratio). The gal/glc ratio vs concentration is then graphed, and non-linear regression is used to find the highest concentration of MTK compound at which gal/glc>0.80 (the “highest mito-safe dose”, or IC20). The Mito-Safety Index in Table 2 is equal to the highest mito-safe dose divided by the mt-Keima EC50 dose.

Data set [3] relates to HeLa cells expressing mt-Keima and YFP-Parkin (HeLa MKYP). In words: Human mt-Keima Mitophagy Assay. Conditions: 16 hrs compound, then 1 μM FCCP/oligomycin for 6 hours, read-out: Mitophagy induction EC50. How it is done:
as §1
The above compound was prepared using the synthetic methods detailed herein, and evaluated for PINK1 activity. Additional exemplary PINK1 modulators for which the synthetic methods described herein can be used are described in WO 2021/168446

As a reminder, the EC50 is the concentration at which the effect is half-maximal. `C[C@@H]1CN([C@H]2COc3cc(F)ccc3[C@@H]2Nc2ncnc3[nH]c(C(F)(F)F)cc23)CCO1`: the MNTC in data set [1] (no FO, safe means DAPI + < 20%, read-out: Highest safe dose (cytotoxicity; no FO; safe means DAPI+ < 20%)) came out at 21.9 µM. The cytotoxicity in data set [1] (with 1 μM FCCP/oligomycin (FO), read-out: Max % death with 1 μM FO) turned out to be 29.6%. Moreover, the selectivity ratio in data set [2] (highest mito-safe dose divided by the mt-Keima EC50 dose, read-out: Mito-Safety Index (highest safe dose/EC50)) came to 135. Besides, the IC20 at 20 h in data set [2] (mitotox or cytotox, highest concentration at which gal/glc > 0.80 (IC20), 20 hours, read-out: Highest safe dose (mitotox or cytotox)) was 17.3 µM. Further, the EC50 in data set [3] stood at 0.13 µM.
